Assay results published in patent US20110039762A1, “TARGETED ANTIMICROBIAL MOIETIES” (C3 JIAN, INC., priority 2009, published 2011).
Entries after “also recorded” stand apart in the source; their conditions may differ.

Assays:
[1] = system: S. mutans; format: cell-based, Streptococcus mutans; settings: S. mutans; as to Organism, effect (morphology, biofilm and growth disruption): test concentration or dose not given here
Procedure: Typically, the in vitro antimicrobial activity of antimicrobial agents is tested using standard NCCLS bacterial inhibition assays, or MIC tests (see, National Committee on Clinical Laboratory Standards “Performance Standards for Antimicrobial Susceptibility Testing,” NCCLS Document M100-S5 Vol. 14, No. 16, December 1994; “Methods for dilution antimicrobial susceptibility test for bacteria that grow aerobically-Third Edition,” Approved Standard M7-A3, National Committee for Clinical Standards, Villanova, Pa.).
Briefly, ˜1×10^5 cfu/mL bacteria were diluted in TH (S. mutans), or Mueller-Hinton (MH) broth (all other organisms) and distributed to 96-well plates. Serially-diluted (2-fold) peptides were then added and the plates incubated at 37° C. for 18-24 h. […] All experiments were conducted 10 times.

[2] = system: M. luteus; assay: Kill or inhibit growth/proliferation; morphology, biofilm and growth disruption (Tables 5, 6); format: cell-based, Micrococcus luteus; design: key: A: Peptide aggregates; B: Less hyphal formation; Clumps; Diffuse clumps and small polyps; F: Diffuse growth; H: Thin; I: Growth inhibition; Microcolony formation; Rippled; Small polyps; Thick; W: Halo formation on top, microlonies on bottom; also: test concentration or dose not given here
[3] = system: MRSA; assay: as above; format: cell-based, Methicillin-resistant Staphylococcus aureus; design: key: A: Peptide aggregates; B: Less hyphal formation; Clumps; Diffuse clumps and small polyps; F: Diffuse growth; H: Thin; I: Growth inhibition; Microcolony formation; Rippled; Small polyps; Thick; W: Halo formation on top, microlonies on bottom; also: test concentration or dose not given here
[4] = system: S. epidermidis; assay: as above; format: cell-based, Staphylococcus epidermidis; design: key: A: Peptide aggregates; B: Less hyphal formation; Clumps; Diffuse clumps and small polyps; F: Diffuse growth; H: Thin; I: Growth inhibition; Microcolony formation; Rippled; Small polyps; Thick; W: Halo formation on top, microlonies on bottom; also: test concentration or dose not given here
[5] = system: S. mutans; assay: as above; format: cell-based, Streptococcus mutans; design: key: A: Peptide aggregates; B: Less hyphal formation; Clumps; Diffuse clumps and small polyps; F: Diffuse growth; H: Thin; I: Growth inhibition; Microcolony formation; Rippled; Small polyps; Thick; W: Halo formation on top, microlonies on bottom
[6] = system: S. pneumoniae; assay: as above; format: cell-based, Streptococcus pneumoniae; design: key: A: Peptide aggregates; B: Less hyphal formation; Clumps; Diffuse clumps and small polyps; F: Diffuse growth; H: Thin; I: Growth inhibition; Microcolony formation; Rippled; Small polyps; Thick; W: Halo formation on top, microlonies on bottom; also: test concentration or dose not given here
[7] = system: E. coli; assay: as above; format: cell-based, Escherichia coli; design: key: A: Peptide aggregates; B: Less hyphal formation; Clumps; Diffuse clumps and small polyps; F: Diffuse growth; H: Thin; I: Growth inhibition; Microcolony formation; Rippled; Small polyps; Thick; W: Halo formation on top, microlonies on bottom; also: test concentration or dose not given here
[8] = system: P. aeruginosa; assay: as above; format: cell-based, Pseudomonas aeruginosa; design: key: A: Peptide aggregates; B: Less hyphal formation; Clumps; Diffuse clumps and small polyps; F: Diffuse growth; H: Thin; I: Growth inhibition; Microcolony formation; Rippled; Small polyps; Thick; W: Halo formation on top, microlonies on bottom; also: test concentration or dose not given here
[9] = system: microorganisms (e.g., bacteria, yeasts, fungi); assay: Targeting peptide binding to target microorganisms (Table 3); settings: peptide binding in aqueous buffers varied by peptide solubility; preferably 1x PBS
[10] = system: microorganisms; assay: Peptides having multiple activities (targeting/binding, antimicrobial, growth or phenotype altering)
Source text: In certain embodiments, peptides described herein can have multiple activities. Thus for example, a peptide can have both binding/targeting activity and antimicrobial activity. Such peptides can be used, e.g., in a chimeric construct, for any or all of these properties. Thus, for example, a peptide designated “B” in Table 8 can be used as a targeting peptide. If it is also designated G or M it can also be used for antimicrobial activity.

[11] = system: F. nucleatum; assay: Kill or inhibit growth/proliferation; morphology, biofilm and growth disruption (Tables 5, 6); format: cell-based, Fusobacterium nucleatum; design: key: A: Peptide aggregates; B: Less hyphal formation; Clumps; Diffuse clumps and small polyps; F: Diffuse growth; H: Thin; I: Growth inhibition; Microcolony formation; Rippled; Small polyps; Thick; W: Halo formation on top, microlonies on bottom; also: test concentration or dose not given here

Substance | MIC [1] | Target(s) (microorganisms bound by the targeting peptide) [9] | Activities [10] | Organism, effect (morphology, biofilm and growth disruption) [11] | further results
FIRKFLKKWLL [Peptide K-9] | S. mutans, 4 μM |  |  |  | 
FLKFLKKFFKKLKY [Peptide K-20] | S. mutans, 8 μM |  |  |  | 
FTRKFLKFLHL [Peptide K-17] | S. mutans, 8 μM |  |  |  | 
GIFKKFVKILYKVQKL [Peptide K-22] | S. mutans, 8 μM |  |  |  | 
GILKKLFTKVF [Peptide K-13] | S. mutans, 16 μM |  |  |  | 
GLGRVIGRLIKQIIWRR [Peptide K-1] | S. mutans, 25 μM |  |  |  | 
GWLKMFKKIIGKFGKF [Peptide K-21] | S. mutans, 8 μM |  |  |  | 
KILKFLFKKVF [Peptide K-8] | S. mutans, 4 μM |  |  |  | 
KILKFLFKQVF [Peptide K-11] | S. mutans, 4 μM |  |  |  | 
KILKKLFKFVF [Peptide K-12] | S. mutans, 8 μM |  |  |  | 
KKFKKFKVLKIL [Peptide K-18] | S. mutans, 16 μM |  |  |  | 
KLFKFLRKHLL [Peptide K-10] | S. mutans, 4 μM |  |  |  | 
LLKLLKLKKLKF [Peptide K-19] | S. mutans, 16 μM |  |  |  | 
LRKFLHKLF [Peptide K-14] | S. mutans, 8 μM |  |  |  | 
LRKNLRWLF [Peptide K-15] | S. mutans, 4 μM |  |  |  | 
NYRLVNAIFSKIFKKKFIKF [Peptide K-7] | S. mutans, 12.5 μM |  |  |  | 
PF-746: peptide having multiple activities (FLGNSQYFTRK; Peptide with targeting and/or antimicrobial activity) |  | S. epidermidis; also recorded: M. luteus; also recorded: E. coli; also recorded: C. albicans; also recorded: S. pneumoniae; also recorded: E. faecalis; also recorded: C. jeikeium | G B |  | Organism, effect (morphology, biofilm and growth disruption) [2]: M. luteus (C); Organism, effect (morphology, biofilm and growth disruption) [3]: MRSA (C); Organism, effect (morphology, biofilm and growth disruption) [4]: S. epidermidis (C); Organism, effect (morphology, biofilm and growth disruption) [5]: S. mutans (D); Organism, effect (morphology, biofilm and growth disruption) [6]: S. pneumoniae (C); Organism, effect (morphology, biofilm and growth disruption) [7]: E. coli (C); Organism, effect (morphology, biofilm and growth disruption) [8]: P. aeruginosa (A)
PF-761: peptide having multiple activities (SKFELVNYASGCSCGADCKCASETECKCASKK; Peptide with targeting and/or antimicrobial activity) |  | S. epidermidis and M. luteus and P. mirabilis and P. aeruginosa and C. albicans and MRSA and S. pneumoniae and E. faecalis | G B |  | Organism, effect (morphology, biofilm and growth disruption) [2]: M. luteus (C); Organism, effect (morphology, biofilm and growth disruption) [3]: MRSA (D); Organism, effect (morphology, biofilm and growth disruption) [4]: S. epidermidis (C); Organism, effect (morphology, biofilm and growth disruption) [5]: S. mutans (D); Organism, effect (morphology, biofilm and growth disruption) [6]: S. pneumoniae (C); Organism, effect (morphology, biofilm and growth disruption) [7]: E. coli (C); Organism, effect (morphology, biofilm and growth disruption) [8]: P. aeruginosa (C)
PF-C055: peptide having multiple activities (YNLSIYIYFLHTITIAGLITLPFII; Peptide with targeting and/or antimicrobial activity) |  | A. naeslundii; also recorded: F. nucleatum; also recorded: P. gingivalis; also recorded: S. mutans | G B | F. nucleatum (T) | Organism, effect (morphology, biofilm and growth disruption) [5]: S. mutans (I)
PF-C062: peptide having multiple activities (PLARATEVVATLFIICSLLLYLTR; Peptide with targeting and/or antimicrobial activity) |  | A. naeslundii; also recorded: F. nucleatum; also recorded: P. gingivalis; also recorded: S. mutans; also recorded: T. denticola | G B | F. nucleatum (T) | Organism, effect (morphology, biofilm and growth disruption) [5]: S. mutans (I)
PF-C064: peptide having multiple activities (DEEALEMGANLYAQFAIDFLNSKK; Peptide with targeting and/or antimicrobial activity) |  | A. naeslundii; also recorded: F. nucleatum; also recorded: P. gingivalis; also recorded: S. mutans; also recorded: T. denticola | G B | F. nucleatum (T) | 
PF-C069: peptide having multiple activities (NALMLREMQLAKNIKVEVTDVLSNKKYC; Peptide with targeting and/or antimicrobial activity) |  | A. naeslundii; also recorded: F. nucleatum; also recorded: P. gingivalis; also recorded: S. mutans; also recorded: T. denticola | G B | F. nucleatum (T) | 
PF-C071: peptide having multiple activities (QVIVKIL; Peptide with targeting and/or antimicrobial activity) |  | A. naeslundii; also recorded: F. nucleatum; also recorded: S. mutans | G B | F. nucleatum (T) | 
PF-C091: peptide having multiple activities (ASNTPRFVRLTLFNFYSKIWNVTHLFLFNNL; Peptide with targeting and/or antimicrobial activity) |  | A. naeslundii; also recorded: F. nucleatum; also recorded: P. gingivalis; also recorded: S. mutans; also recorded: T. denticola | G B | F. nucleatum (T) | 
PF-C120: peptide having multiple activities (ASLSTMTFKVMELKELIILLCGLTMLMIQTEFV; Peptide with targeting and/or antimicrobial activity) |  | A. naeslundii; also recorded: F. nucleatum; also recorded: P. gingivalis; also recorded: S. mutans; also recorded: T. denticola | G B | F. nucleatum (T) | 
PF-C137: peptide having multiple activities (QRMYWFKRGFETGDFSAGDTFAELK; Peptide with targeting and/or antimicrobial activity) |  | A. naeslundii; also recorded: F. nucleatum; also recorded: P. gingivalis; also recorded: S. mutans | G B | F. nucleatum (T) | 
PF-C143: peptide having multiple activities (VVFGGGDRLV; Peptide with targeting and/or antimicrobial activity) |  | A. naeslundii; also recorded: F. nucleatum; also recorded: P. gingivalis; also recorded: S. mutans; also recorded: T. denticola | G B | F. nucleatum (C) | 
PF-C181: peptide having multiple activities (KMRAGQVVFIYKLILVLLFYVLQKLFDLKKGCF; Peptide with targeting and/or antimicrobial activity) |  | P. gingivalis | G B | F. nucleatum (T) | 
PF-C214 (GGHKQLVIEPLVSQ; Peptide with targeting and/or antimicrobial activity) |  |  |  | F. nucleatum (T) | 
VYRKRKSILKIYAKLKGWH [Peptide K-2] | S. mutans, 12.5 μM |  |  |  | 
